Molecules are shown by their SMILES.

Assay [1] relates to fibrosis-related genes TGF-β, Col A1, collagen A3, Timp2. Kind of assay: qRT-PCR of fibrosis-related genes in injured tibialis anterior muscle. Format: in vivo. To be noted: old mouse, CTX injury. As for the experimental part: 25-month-old mice are fed with a control diet or a farnesol-containing diet for 2 weeks, and then 2 ul of 10 uM cardiotoxin (CTX) per body weight (g) is directly injected into the muscle to induce muscle injury. After 4 days, muscles are frozen and sectioned, followed by histological staining.
In addition, expressions of fibrosis-related genes, TGF-β, Col A1, collagen A3, and Timp2 in tibialis anterior muscle are analyzed by qRT-PCR as described above.

In assay [2] the test system is PARIS-overexpressing C2C12 cells. The assay is described as follows: Differentiation of PARIS-overexpressing myoblasts (Myh immunostaining). Format: cell-based. How it is done:
In C2C12 myoblasts, a PARIS gene expression vector (pCMV-Tag2A, Stratagene) is transiently expressed, followed by immunoblotting and immunostaining analysis. PARIS gene is a full length cDNA of human PARIS gene having a nucleotide sequence of SEQ ID NO: 9. […] After induction of differentiation of PARIS-overexpressing C2C12 cells for 3 days, immunostaining for Myh expression is performed. To induce the differentiation, cells are cultured in DMEM containing 2% horse serum and 0.1 μM farnesol dissolved in DMSO for 48 hours. A control group is cultured in the same manner as above, except that only DMSO is added. Other culture conditions are the same as those described in Section 1 of Example 2. As shown in panel (A) of FIG. 4F, PARIS overexpression decreases Myh-positive myotube formation, and reduced myotube formation is recovered by farnesol treatment. In (A) of FIG. 4F, Control represents myoblasts introduced with no PARIS gene expression vector, and ‘PARIS’ represents myoblasts introduced with a PARIS gene expression vector. In these experiments, blue color staining indicates nuclei, and red color staining indicates stained myh and also myotubes. The colors are not shown in panel (A) of FIG. 4F, but the difference in the relative amount of red color stained area is quantified in panel (B) of FIG. 4F, wherein pCMV represents the control myoblasts without a PARIS gene expression vector. […]

A further assay deals with PGC-1α. The assay is described as follows: Immunoblotting of tibialis anterior muscles of mice administered with farnesol. The format is in vivo, mouse. The conditions noted are these: 5 month-old mice, feed with 0.5% w/w farnesol, 5 weeks. How it is done:
5 month-old C57BL/6 male mice (weighing 22 g) are maintained at a temperature of 22±2° C., humidity of 55±5%, and a light-dark cycle of 12:12 hours. An animal feed containing 0.5% w/w farnesol was supplied by Jung-Ang Lab Animal Inc. A control group is fed with a feed equivalent to a general feed for experimental animals, excluding that no 0.5% w/w farnesol is contained. They are allowed free access to drinking water. Skeletal muscles were separated from the mice and control mouse fed with farnesol for 5 weeks, and subjected to immunoblot analysis. In all the following Examples, administration or feeding of mouse is performed as above, unless otherwise mentioned. […] In this specification, assuming that human life expectancy of 100 years corresponds to mouse life expectancy of 3 years, human life expectancy is estimated from the relationship.
Background: In western blotting, separated proteins are transferred to a membrane and probed.

The test system of a further assay is PARIS. Kind of assay: Immunoprecipitation analysis for PARIS in tibialis anterior muscles. The format is in vivo, mouse. The conditions noted are these: 4-month-old mice fed with farnesol 0, 1, 2, 3 days. How it is done: To examine whether farnesol increases PARIS farnesylation in muscles, immunoprecipitation of PARIS is performed in tibialis anterior muscles of 4-month-old mice (female, 22 g) fed with farnesol for a predetermined period, that is, 0, 1, 2, and 3 days. The tibialis anterior muscles which are removed from the mice fed with farnesol are mixed with a lysis buffer (10 mM Tris-HCl, pH 7.4, 150 mM NaCl, 5 mM EDTA, 1% triton X-100, 10 mM Na-β-glycerophosphate, and Complete Protease Inhibitor Mixture (Roche)), and homogenized using a Diax 900 tissue homogenizer. The tissues are left under refrigeration for 30 minutes, and centrifuged at 52,000 rpm for 20 minutes. A supernatant is used for immunoprecipitation.

For `CC(C)=CCC/C(C)=C/CC/C(C)=C/CO` [farnesol, (2E,6E)-3,7,11-trimethyldodeca-2,6,10-trien-1-ol], the “expressions of fibrosis-related genes in injured tibialis anterior muscle” value in assay [1] is “significantly reduced”. Further, the “red color (Myh) stained area, control cells without PARIS vector” value in assay [2] (CONTROL (pCMV) C2C12, 0.1 μM farnesol vs DMSO) is “‘CONTROL’ cell treated with DMSO is smaller than that of ‘CONTROL’ cell treated with Farnesol”. Moreover, in assay [2] (PARIS-overexpressing C2C12, 0.1 μM farnesol), the “Myh-positive myotube formation reduced by PARIS overexpression” value is given as “recovered”. Moreover, in the assay on PGC-1α, the “expression of PGC-1α in tibialis anterior muscle” value is listed as “increased” and the “expression of cytochrome C in tibialis anterior muscle” value is on record as “increased”. For the same molecule, the “farnesylated PARIS level in tibialis anterior muscle” value in the assay with PARIS was “further increases”.
